Assay results from the supplement of paper PMC3770661.
± gives the uncertainty stated by the source.

Test system: HepG2 (L1.3 5'UTR promoter firefly luciferase reporter)
Assay: L1 promoter activity (FLuc/RLuc) relative to DMSO vehicle control (% of control); higher = stronger L1 promoter activation
[1] = concentration (uM unless unit written): 250, treatment time: 6 h
[2] = concentration (uM unless unit written): 250, treatment time: 24 h
[3] = concentration (uM unless unit written): 500, treatment time: 6 h
[4] = concentration (uM unless unit written): 500, treatment time: 24 h
[5] = concentration (uM unless unit written): 10, treatment time: 6 h
[6] = concentration (uM unless unit written): 10, treatment time: 24 h
[7] = concentration (uM unless unit written): 100, treatment time: 6 h
[8] = concentration (uM unless unit written): 100, treatment time: 24 h
[9] = concentration (uM unless unit written): 1000, treatment time: 6 h
[10] = concentration (uM unless unit written): 25, treatment time: 6 h
[11] = concentration (uM unless unit written): 25, treatment time: 24 h
[12] = concentration (uM unless unit written): 50, treatment time: 6 h
[13] = concentration (uM unless unit written): 50, treatment time: 24 h

| Compound | L1 promoter activity [1] | L1 promoter activity [2] | L1 promoter activity [3] | L1 promoter activity [5] | L1 promoter activity [6] | L1 promoter activity [7] | L1 promoter activity [8] | L1 promoter activity [9] | L1 promoter activity [12] | L1 promoter activity [13] | also measured |
| --- | --- | --- | --- | --- | --- | --- | --- | --- | --- | --- | --- |
| Nc1ccn([C@@H]2O[C@H](CO)[C@@H](O)[C@@H]2O)c(=O)n1 [Cytosine arabinoside] | 95.2 ± 5.5 | 105 ± 4.4 | 102 ± 8.1 |  |  |  |  |  |  |  | L1 promoter activity (concentration (uM unless unit written): 125, treatment time: 6 h): 101 ± 8; L1 promoter activity (concentration (uM unless unit written): 125, treatment time: 24 h): 106 ± 3.7; L1 promoter activity [4]: 103 ± 6.2 |
| CCOC(=O)C(C)(C)Oc1ccc(Cl)cc1 [Clofibrate] |  |  |  | 113 ± 11 | 112 ± 7.9 | 102 ± 11 | 100 ± 9.5 | 106 ± 17 |  |  | L1 promoter activity (concentration (uM unless unit written): 1000, treatment time: 24 h): 132 ± 23 |
| C[C@]12CC[C@@H]3c4ccc(O)cc4CC[C@H]3[C@@H]1CC[C@@H]2O [17β-Estradiol] |  |  |  |  |  | 107 ± 7.5 | 102 ± 15 |  | 119 ± 8.4 | 103 ± 16 | L1 promoter activity [10]: 101 ± 6.5; L1 promoter activity [11]: 104 ± 11 |
| CC(=O)S[C@@H]1CC2=CC(=O)CC[C@]2(C)[C@H]2CC[C@@]3(C)[C@@H](CC[C@@]34CCC(=O)O4)[C@H]12 [Spironolactone] |  |  |  |  |  |  |  |  |  |  | L1 promoter activity (concentration (uM unless unit written): 1, treatment time: 6 h): 104 ± 9.8; L1 promoter activity (concentration (uM unless unit written): 1, treatment time: 24 h): 89.3 ± 3.8; L1 promoter activity (concentration (uM unless unit written): 3, treatment time: 6 h): 97.8 ± 9.3; L1 promoter activity (concentration (uM unless unit written): 3, treatment time: 24 h): 100 ± 8.9; L1 promoter activity (concentration (uM unless unit written): 30, treatment time: 6 h): 88.5 ± 9.3; L1 promoter activity (concentration (uM unless unit written): 30, treatment time: 24 h): 111 ± 12 |
| CCC1(c2ccc(N)cc2)CCC(=O)NC1=O (configuration not stated) [Aminoglutethimide] | 140 ± 58 | 126 ± 11 | 136 ± 35 |  |  |  |  | 96 ± 7.4 |  |  | L1 promoter activity [4]: 102 ± 16 |
| COC(=O)C1=C(C)NC(C)=C(C(=O)OC)C1c1ccccc1[N+](=O)[O-] [Nifedipine] |  |  |  | 96.1 ± 10 | 104 ± 8.8 | 88.6 ± 24 | 91.2 ± 2.6 |  | 97.2 ± 12 | 104 ± 7 | L1 promoter activity [10]: 98.4 ± 2.3; L1 promoter activity [11]: 126 ± 5.6 |
| N.N.[Cl][Pt][Cl] [Cisplatin] |  |  |  | 109 ± 13 | 98.4 ± 13 | 148 ± 40 | 95.4 ± 19 |  | 117 ± 23 | 105 ± 7.7 |  |
| CN(C)CCN(Cc1cccs1)c1ccccn1 [Methapyrilene] | 97.7 ± 2.8 | 101 ± 25 | 86.6 ± 8.4 |  |  |  |  | 72.8 ± 12 |  |  |  |
